Reference: ChEMBL document CHEMBL1201862, “PubChem BioAssay data set” (2004)
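96-well plates; 48 h exposure; 5 concentrations. Endpoints by linear interpolation between flanking doses. Not reached: highest tested concentration assigned. GI50 = concentration required for 50% inhibition of growth.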 Calls of active or inactive are those of the source. Cut-off read from the data, not from the text of the source: active = GI50 up to about 1.1 µM and inactive = higher.

Experiments:
Assay in all cases: inhibition of tumour cell growth, NCI panel, 48 h
[1] = test system: OVCAR-3
[2] = test system: DMS-114
[3] = test system: SNB-78
[4] = test system: SF-295
[5] = test system: HCT-116
[6] = test system: SNB-75
[7] = test system: OVCAR-4
[8] = test system: OVCAR-5
[9] = test system: SK-MEL-5
[10] = test system: OVCAR-8
[11] = test system: SF-268
[12] = test system: TK-10
[13] = test system: KM-20L2
[14] = test system: HT-29
[15] = test system: RXF 393
[16] = test system: EKVX
[17] = test system: A498
[18] = test system: HCC 2998
[19] = test system: UO-31
[20] = test system: HOP-62
[21] = test system: SW-620
[22] = test system: NCI-H226
[23] = test system: LOX IMVI
[24] = test system: KM12
[25] = test system: SN12C
[26] = test system: UACC-257
[27] = test system: UACC-62
[28] = test system: Malme-3M
[29] = test system: XF498
[30] = test system: NCI-H23
[31] = test system: NCI-H522
[32] = test system: RXF 631
[33] = test system: U-251
[34] = test system: DLD-1
[35] = test system: ACHN
[36] = test system: M14
[37] = test system: M19-MEL
[38] = test system: CCRF-CEM
[39] = test system: A549
[40] = test system: LXFL 529
[41] = test system: RPMI-8226
[42] = test system: CAKI-1
[43] = test system: K562
[44] = test system: SR
[45] = test system: IGROV-1
[46] = test system: SF-539
[47] = test system: MOLT-4
[48] = test system: HCT-15
[49] = test system: NCI-H460
[50] = test system: 786-0
[51] = test system: SK-OV-3
[52] = test system: DMS-273
[53] = test system: SNB-19
[54] = test system: SK-MEL-28
[55] = test system: HOP-92
[56] = test system: HOP-18
[57] = test system: COLO 205
[58] = test system: SK-MEL-2
[59] = test system: HL-60

Measured: GI50

Cc1ccc(C)c(NC(=O)CCc2nnc(S)[nH]2)c1
44.2 µM: [48]
inactive: [1] > 100 µM | [2] 28.7 µM | [3] > 100 µM | [4] > 100 µM | [5] 69.2 µM | [6] > 100 µM | [7] > 100 µM | [8] > 100 µM | [9] > 100 µM | [10] > 100 µM | [11] > 100 µM | [12] > 100 µM | [13] > 100 µM | [14] > 100 µM | [15] > 100 µM | [16] > 100 µM | [17] > 100 µM | [18] > 100 µM | [19] > 100 µM | [20] > 100 µM | [21] 17.4 µM | [22] > 100 µM | [23] > 100 µM | [24] > 100 µM | [25] > 100 µM | [26] > 100 µM | [27] > 100 µM | [28] > 100 µM | [29] > 100 µM | [30] > 100 µM | [31] > 100 µM | [32] > 100 µM | [33] > 100 µM | [34] 54.1 µM | [35] > 100 µM | [36] > 100 µM | [37] > 100 µM | [38] > 100 µM | [39] > 100 µM | [40] > 100 µM | [41] > 100 µM | [42] > 100 µM | [43] > 100 µM | [44] 6.43 µM | [45] 86.7 µM | [46] > 100 µM | [47] > 100 µM | [49] > 100 µM | [50] > 100 µM | [51] > 100 µM | [52] > 100 µM | [53] > 100 µM | [54] > 100 µM | [55] > 100 µM | [56] > 100 µM | [57] > 100 µM | [58] > 100 µM

COc1cc2c(OC)cc1CSCc1sc(C)c(c1Br)CSC2
> 100 µM: [48]
inactive: [1] > 100 µM | [2] > 100 µM | [3] > 100 µM | [4] > 100 µM | [5] > 100 µM | [6] 74.1 µM | [7] > 100 µM | [8] > 100 µM | [9] > 100 µM | [59] 69.3 µM | [10] > 100 µM | [11] > 100 µM | [12] > 100 µM | [13] > 100 µM | [14] > 100 µM | [15] > 100 µM | [16] > 100 µM | [17] > 100 µM | [18] > 100 µM | [19] > 100 µM | [20] > 100 µM | [21] > 100 µM | [22] > 100 µM | [23] > 100 µM | [24] > 100 µM | [25] > 100 µM | [26] > 100 µM | [27] > 100 µM | [28] > 100 µM | [29] > 100 µM | [30] > 100 µM | [32] > 100 µM | [33] > 100 µM | [34] > 100 µM | [35] > 100 µM | [36] > 100 µM | [37] > 100 µM | [38] > 100 µM | [39] > 100 µM | [40] > 100 µM | [41] > 100 µM | [42] > 100 µM | [43] > 100 µM | [44] 4.16 µM | [45] > 100 µM | [46] > 100 µM | [47] > 100 µM | [49] > 100 µM | [50] > 100 µM | [51] > 100 µM | [52] > 100 µM | [53] > 100 µM | [54] > 100 µM | [55] > 100 µM | [56] > 100 µM | [57] > 100 µM | [58] > 100 µM

CC(C)(C)c1cc(Cc2ccc([N+](C)(C)C)cc2)c(O)c(C(C)(C)C)c1
inactive: [2] 7.19 µM | [3] 14.9 µM | [4] 26.3 µM | [5] 16.7 µM | [6] 9.2 µM | [7] 30.1 µM | [8] 22.2 µM | [9] 10.6 µM | [59] 2.41 µM | [10] 17.4 µM | [11] 15 µM | [12] 24.6 µM | [13] 21.9 µM | [14] 15.4 µM | [15] 16.4 µM | [16] 30.2 µM | [17] 53 µM | [18] 15.7 µM | [19] 95.3 µM | [20] 16.6 µM | [21] 23.2 µM | [23] 16.4 µM | [24] 15.7 µM | [25] 14.9 µM | [26] 17 µM | [27] 14.3 µM | [28] 17.9 µM | [29] 13 µM | [30] 17.7 µM | [32] 45.6 µM | [33] 12.7 µM | [34] 45.4 µM | [35] > 100 µM | [36] 18.2 µM | [37] 12.9 µM | [38] 12.5 µM | [39] 33.9 µM | [40] 13.8 µM | [41] 14.8 µM | [42] 63.8 µM | [43] 9.59 µM | [44] 14.1 µM | [45] 14.2 µM | [46] 16.5 µM | [47] 11.8 µM | [49] 18.6 µM | [50] 24.2 µM | [51] 25.2 µM | [52] 9.64 µM | [53] 12.9 µM | [54] 12.5 µM | [56] 20.1 µM | [58] 16.5 µM
> 100 µM: [48]

CC(=O)N1C/C(=C\c2ccc(N(C)C)cc2)C(=O)/C(=C/c2ccc(N(C)C)cc2)C1
> 100 µM: [48]
inactive: [1] 20.4 µM | [2] 30.2 µM | [3] 85.9 µM | [4] 52.6 µM | [5] 40.6 µM | [6] 17.2 µM | [7] > 100 µM | [8] > 100 µM | [9] 54.2 µM | [59] 29.9 µM | [10] 84.1 µM | [11] 66.2 µM | [12] 75.7 µM | [13] 28.7 µM | [14] 36.6 µM | [15] 41.6 µM | [17] 33.5 µM | [18] 58.2 µM | [19] > 100 µM | [20] > 100 µM | [21] 41.5 µM | [22] 57.9 µM | [23] 35.3 µM | [24] 35.7 µM | [25] 72.3 µM | [26] 47.4 µM | [27] 30.1 µM | [28] 75.7 µM | [29] > 100 µM | [30] > 100 µM | [32] 55.2 µM | [33] 31.1 µM | [34] 68.1 µM | [35] 87.5 µM | [36] 40.1 µM | [37] 33.6 µM | [38] 46.9 µM | [39] > 100 µM | [40] 64 µM | [41] > 100 µM | [42] 41.1 µM | [43] 60 µM | [44] 35.6 µM | [45] 53.2 µM | [46] 27.1 µM | [47] 51.4 µM | [50] 39.4 µM | [51] 55.7 µM | [52] 49.8 µM | [53] 24.8 µM | [54] > 100 µM | [55] > 100 µM | [56] 71.9 µM | [57] > 10 µM
